Measurements published in patent US20230226099A1, “INHALABLE FORMULATION” (AALTO UNIVERSITY FOUNDATION SR, priority 2020, published 2023).

Columns and labels:
[1] = tested on: MDR-Acinetobacter baumannii; assay: Antibiotic resistance profile of strain; assay type: cell-based; conditions: strain 5542
Pseudomonas aeruginosa = assay: Antibiotic resistance profile of strains; assay type: cell-based
[2] = tested on: Pseudomonas aeruginosa PAO1; assay: Coadministration with antibiotics, development of resistance (MIC over days); assay type: cell-based
Text: MIC values were categorized in three groups according to the Clinical and Laboratory Standards Institute: susceptible, intermediate susceptible and resistant.

[3] = tested on: MDR resistant clinical isolates; assay: Coadministration with antibiotics in MDR resistant clinical isolates; assay type: cell-based; conditions: Amikacin, Cefepime, Ceftazidime and Meropenem
[4] = tested on: lipopolysaccharides of P. aeruginosa, strain PA10; assay: Analytical ultracentrifuge sedimentation velocity analysis of interaction with LPS; assay type: binding, Pseudomonas aeruginosa; conditions: 135 μM P[5]a and 35 μM LPS, UV absorbance at 305 nm
Method: A clear initial peak of unbound P[5]a can be observer at low molecular weight (2260 Da), followed by a long and polydisperse collection of peaks, ranging from low molecular weight (S), to very high molecular weight (60.000 kDa) See Example 2.
The interaction of P[5]a with lipopolysaccharides of P. aeruginosa, strain PA10 was measured using AUC.
Analytical ultracentrifugation (AUC) is based on sedimentation of colloidal particles in a centrifugal field. During centrifugation particles move toward the bot-tom of the measuring cell. This movement leads to redistribution of particles along the measuring cell, which in turn can be expressed as a change in concentration along the measuring cell. The absorbance detector was used to follow the changes caused by centrifugation (absorbance is proportional to concentration). In simple words, in AUC the inventors measure how concentration changes during centrifugation, so they collect concentration profiles. Interaction between particles can be measured as a result of changes in the sedimentation profiles. […]
The spectra of both P[5]a and LPS from P. aeruginosa were first analysed separately (see FIGS. 11a and b). […] Because only the sedimentation of P[5]a was detected at 305 nm, the inventors were certain that any changes observed in the sedimentation profile, come from interactions between P[5]a and other particles. […]

[5] = Lung neutrophil infiltration and inflammation score after i.v. or i.n. administration; assay type: in vivo; conditions: BALB/c mice, different dosages, 24 hours
Text: Two different administration methods were use, intravenously (i.v.) or intranasally (i.n.). Pathological changes were graded according to severity (P=Present; 1=Minimal; 2=Mild; 3=Moderate).

NCC[C@H](O)C(=O)N[C@@H]1C[C@H](N)[C@@H](O[C@H]2O[C@H](CN)[C@@H](O)[C@H](O)[C@H]2O)[C@H](O)[C@H]1O[C@H]1O[C@H](CO)[C@@H](O)[C@H](N)[C@H]1O [Amikacin]
Antibiotic resistance (category) [1]: Resistant to Amikacin, Amoxicillin-clavulanate, Ampicillin,
Antibiotic resistance (category) (Pseudomonas aeruginosa; strain 2798 (ATCC 2798)): Susceptible
Antibiotic resistance (value) (Pseudomonas aeruginosa; strain 5539): Susceptible to Amikacin 8 ug, intermediate to Cefepime 8 ug,
Antibiotic resistance (value) (Pseudomonas aeruginosa; strain 5542, MDR): MDR Intermediate susceptible to amikacin 16 ug, resistant to
Antibiotic resistance (value) (Pseudomonas aeruginosa; strain 5550, MDR): MDR Intermediate susceptible to amikacin 32 ug
Antibiotic resistance (value) (Pseudomonas aeruginosa; strain 5834, MDR): MDR Intermediate susceptible to amikacin 16 ug, resistant to

CC1(C)S[C@@H]2[C@H](NC(=O)[C@H](N)c3ccccc3)C(=O)N2[C@H]1C(=O)O [Ampicillin]
Antibiotic resistance (category) [1]: Resistant to Amikacin, Amoxicillin-clavulanate, Ampicillin,

CC[C@H]1OC(=O)[C@H](C)[C@@H](O[C@H]2C[C@@](C)(OC)[C@@H](O)[C@H](C)O2)[C@H](C)[C@@H](O[C@@H]2O[C@H](C)C[C@H](N(C)C)[C@H]2O)[C@](C)(O)C[C@@H](C)CN(C)[C@H](C)[C@@H](O)[C@]1(C)O [Azithromycin]
Antibiotic resistance (category) [1]: Resistant to Amikacin, Amoxicillin-clavulanate, Ampicillin,

C[C@H]1[C@H](NC(=O)/C(=N\OC(C)(C)C(=O)O)c2csc(N)n2)C(=O)N1S(=O)(=O)O [Aztreonam]
Antibiotic resistance (category) (Pseudomonas aeruginosa; strain 2798 (ATCC 2798)): Intermediate susceptible

CC1=C(C(=O)O)N2C(=O)[C@@H](NC(=O)[C@H](N)c3ccccc3)[C@H]2SC1 [Cefalexin]
Antibiotic resistance (category) [1]: Resistant to Amikacin, Amoxicillin-clavulanate, Ampicillin,

CO/N=C(\C(=O)N[C@@H]1C(=O)N2C(C(=O)[O-])=C(C[N+]3(C)CCCC3)CS[C@H]12)c1csc(N)n1 [Cefepime]
MIC ([2]; Pseudomonas aeruginosa, 96 h, PAO1, after four days, highest concentration of antibiotic included): 128 µg/mL

CC(C)(O/N=C(\C(=O)N[C@@H]1C(=O)N2C(C(=O)[O-])=C(C[n+]3ccccc3)CS[C@H]12)c1csc(N)n1)C(=O)O [Ceftazidime]
Antibiotic resistance (value) (Pseudomonas aeruginosa; strain 5539): 8 µg
Antibiotic resistance (value) (Pseudomonas aeruginosa; strain 5542, MDR): 32 µg
Antibiotic resistance (value) (Pseudomonas aeruginosa; strain 5827, MDR): 64 µg
Antibiotic resistance (value) (Pseudomonas aeruginosa; strain 5832, MDR): 16 µg
Antibiotic resistance (value) (Pseudomonas aeruginosa; strain 5834, MDR): cefepime 64 ug, ceftazidime 64 ug and meropenem 64 ug

C[C@@H](O)[C@H]1C(=O)N2C(C(=O)O)=C(S[C@@H]3CN[C@H](C(=O)Nc4cccc(C(=O)O)c4)C3)[C@H](C)[C@H]12 [Ertapenem]
Antibiotic resistance (category) [1]: Resistant to Amikacin, Amoxicillin-clavulanate, Ampicillin,

C[C@@H](O)[C@H]1C(=O)N2C(C(=O)O)=C(S[C@@H]3CN[C@H](C(=O)N(C)C)C3)[C@H](C)[C@H]12 [Meropenem]
Antibiotic resistance (category) [1]: Resistant to Amikacin, Amoxicillin-clavulanate, Ampicillin,
Antibiotic resistance (value) (Pseudomonas aeruginosa; strain 5539): 8 µg
Antibiotic resistance (value) (Pseudomonas aeruginosa; strain 5542, MDR): 8 µg
Antibiotic resistance (value) (Pseudomonas aeruginosa; strain 5827, MDR): 16 µg
Antibiotic resistance (value) (Pseudomonas aeruginosa; strain 5832, MDR): 8 µg
Antibiotic resistance (value) (Pseudomonas aeruginosa; strain 5834, MDR): cefepime 64 ug, ceftazidime 64 ug and meropenem 64 ug

C[N+](C)(C)CCOc1cc2c(OCC[N+](C)(C)C)cc1Cc1cc(OCC[N+](C)(C)C)c(cc1OCC[N+](C)(C)C)Cc1cc(OCC[N+](C)(C)C)c(cc1OCC[N+](C)(C)C)Cc1cc(OCC[N+](C)(C)C)c(cc1OCC[N+](C)(C)C)Cc1cc(OCC[N+](C)(C)C)c(cc1OCC[N+](C)(C)C)C2.[Br-].[Br-].[Br-].[Br-].[Br-].[Br-].[Br-].[Br-].[Br-].[Br-] [P[5]a, 4,9,14,19,24,26,28,30,32,34-Deca[2-(trimethylaminio)ethoxy]hexacyclo[21.2.2.2^3,6.2^8,11.2^13,16.2^18,21]pentatriaconta1(25),3,5,8,10, 13,15,18,20,23,26,28,30,32,34-pentadecaene 10bromide]
penetration and efficacy of coadministered antibiotics [3]: enhances the penetration and efficacy
interaction with LPS [4]: strong interaction
penetration of coadministered antibiotics ([2]; PAO1): enhances the penetration
development of resistance by the pathogen to the coadministered antibiotic ([2]; coadministration with Aztreonam, Cefepime, Meropenem and Tobramycin, PAO1): greatly slowed
tolerability (lung neutrophil infiltration and inflammation score) [5]: good tolerability

Cc1cc(NS(=O)(=O)c2ccc(N)cc2)no1 [Sulfamethoxazole]
Antibiotic resistance (category) [1]: Resistant to Amikacin, Amoxicillin-clavulanate, Ampicillin,

CN(C)c1cc(NC(=O)CNC(C)(C)C)c(O)c2c1C[C@H]1C[C@H]3[C@H](N(C)C)C(O)=C(C(N)=O)C(=O)[C@@]3(O)C(O)=C1C2=O [Tigecycline]
Antibiotic resistance (category) [1]: Resistant to Amikacin, Amoxicillin-clavulanate, Ampicillin,

NC[C@H]1O[C@H](O[C@H]2[C@H](O)[C@@H](O[C@H]3O[C@H](CO)[C@@H](O)[C@H](N)[C@H]3O)[C@H](N)C[C@@H]2N)[C@H](N)C[C@@H]1O [Tobramycin]
Antibiotic resistance (category) [1]: Resistant to Amikacin, Amoxicillin-clavulanate, Ampicillin,
Antibiotic resistance (category) (Pseudomonas aeruginosa; strain 5539): resistant

CO/N=C(\C(=O)N[C@@H]1C(=O)N2C(C(=O)O)=C(COC(N)=O)CS[C@H]12)c1ccco1 [cefurixome]
Antibiotic resistance (category) (Pseudomonas aeruginosa; strain 5539): resistant

O=C(O)c1cn(C2CC2)c2cc(N3CCNCC3)c(F)cc2c1=O [ciprofloxacin]
Antibiotic resistance (category) (Pseudomonas aeruginosa; strain 5539): resistant
Antibiotic resistance (category) (Pseudomonas aeruginosa; strain 5832, MDR): resistant

Amoxicillin-clavulanate
Antibiotic resistance (category) [1]: Resistant to Amikacin, Amoxicillin-clavulanate, Ampicillin,

Colistin
Antibiotic resistance (category) (Pseudomonas aeruginosa; strain 2798 (ATCC 2798)): Susceptible

Piperacillin-tazobactam
Antibiotic resistance (category) [1]: Resistant to Amikacin, Amoxicillin-clavulanate, Ampicillin,
Antibiotic resistance (category) (Pseudomonas aeruginosa; strain 5539): resistant
